Patent US10865218B2, “Fluoride fluorescence probe” (The Procter & Gamble Company, priority 2017, dated 2020)

What was measured:
[1] = Fluoride ion sensing: fluorescence and absorption spectra of the probes with NaF; assay type: physicochemical; conditions: probe alone, before F^−
Experimental: The procedure for fluoride ion sensing is described. Stock solutions of inventive compounds R1-R3 (1 mM) are prepared in DMSO. The test solutions of the inventive compounds R1-R3 (10 μM) in […] DMSO-HEPES solution (3/2, v/v, 10 mM HEPES, pH=7.2) are prepared by placing stock solutions in 10-mL volumetric flask, and diluting with buffer solution. The resulting solutions are shaken well and incubated at room temperature for 50 minutes before recording the spectra.
Sodium fluoride (NaF) is used as a fluoride source for the fluoride ion sensing test. Stock solution of NaF (1 mM) is prepared in deionized water. The test solutions of the inventive compounds R1-R3 (10 μM) with NaF (500 μM) are prepared by placing stock solutions in 10-mL volumetric flask, and diluting with buffer solution. The resulting solutions are shaken well and incubated at room temperature for 50 minutes before recording the spectra.
UV-visible spectra are recorded on a Shimadzu UV-2550 spectrometer. Steady-state emission experiments at room temperature are measured on an Edinburgh instrument FLS-920 spectrometer with a Xe lamp as an excitation source. Unless otherwise noted, for all measurements, the excitation wavelength is 620 nm and the emission wavelength is collected from 640 to 780 nm.
The color changed from colorless to blue, which can be visible by naked eyes. The reaction mechanism is further confirmed by HR-MS analysis in aqueous solution. After treated with NaF, a new peak is appeared in the solution with almost the same HR-MS data for the three compounds (R1: 284.1214; R2: 284.1202; R3: 284.1209), which is nearly identical to the theoretical molecular mass of the MB ([M−Cl^−]^+=284.1216).

[2] = Fluorescence intensity change with pH variation; assay type: physicochemical; conditions: 10 μM, before NaF
Description: Fluorescence change of inventive compound R3 before/after treated with NaF under different pH levels are described.

Row | SMILES | absorption and emission in visible range [1] | pH range in which the compound remains stable [2]
1 | CC(C)[Si](Oc1ccc(COC(=O)N2c3ccc(N(C)C)cc3Sc3cc(N(C)C)ccc32)cc1)(C(C)C)C(C)C [Compound R2, 4-((triisopropylsilyl)oxy)benzyl 3,7-bis(dimethylamino)-10H-phenothiazine-10-carboxylate] | no absorption and emission in visible range | –
2 | CN(C)c1ccc2c(c1)Sc1cc(N(C)C)ccc1N2C(=O)OCc1ccc(O[Si](c2ccccc2)(c2ccccc2)C(C)(C)C)cc1 [Compound R1, 4-((tert-butyldiphenylsilyl)oxy)benzyl 3,7-bis(dimethylamino)-10H-phenothiazine-10-carboxylate] | no absorption and emission in visible range | –
3 | CN(C)c1ccc2c(c1)Sc1cc(N(C)C)ccc1N2C(=O)OCc1ccc(O[Si](C)(C)C(C)(C)C)cc1 [Compound R3, 4-((tert-butyldimethylsilyl)oxy)benzyl 3,7-bis(dimethylamino)-10H-phenothiazine-10-carboxylate] | no absorption and emission in visible range | 2-12
